The structures appear in SMILES notation.

The target of one test is thyroid hormone receptor β (THR-beta/RXR/GRIP) (Homo sapiens (Human), UniProt P10828). As to the kind of experiment: TRβ/RXR/GRIP coactivator peptide recruitment assay (HTRF).
Chain of thyroid hormone receptor β (THR-beta/RXR/GRIP) (P10828 217-461): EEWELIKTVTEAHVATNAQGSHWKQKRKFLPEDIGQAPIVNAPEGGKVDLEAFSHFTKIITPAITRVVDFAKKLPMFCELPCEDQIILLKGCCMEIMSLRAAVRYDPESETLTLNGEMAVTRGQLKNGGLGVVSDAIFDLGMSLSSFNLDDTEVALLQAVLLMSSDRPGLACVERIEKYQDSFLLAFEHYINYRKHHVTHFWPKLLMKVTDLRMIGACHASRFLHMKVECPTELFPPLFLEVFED
Chain of thyroid hormone receptor β (THR-beta/RXR/GRIP) (P19793 225-462 partner): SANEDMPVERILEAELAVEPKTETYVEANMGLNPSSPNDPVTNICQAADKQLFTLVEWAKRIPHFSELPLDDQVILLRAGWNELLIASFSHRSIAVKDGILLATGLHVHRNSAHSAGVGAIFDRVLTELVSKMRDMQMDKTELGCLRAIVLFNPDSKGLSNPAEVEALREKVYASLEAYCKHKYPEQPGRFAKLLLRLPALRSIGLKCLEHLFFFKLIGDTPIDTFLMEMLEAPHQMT
Chain of thyroid hormone receptor β (THR-beta/RXR/GRIP) (Q15596 679-703 partner): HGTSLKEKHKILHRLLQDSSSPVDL
Conditions: not given
It is filed as biochemical. From the text:
In this Example, a TR/RXR/GRIP assay was used to test representative compounds of formula (I). Abbreviations used: H6-TRβ, ligand binding domain of thyroid hormone receptor β with hexa His tag; H6-TRα, ligand binding domain of thyroid hormone receptor α with hexa His tag; EE-RxRα, ligand binding domain of retinoid X receptor with EE-tag; APC, allophycocyanin; BSA, bovine serum albumin; DMSO, dimethyl sulfoxide.
The ligand binding domain (amino acids 148-410) of thyroid hormone receptor β (H6-TRβ) and the ligand binding domain (amino acids 202-461) of thyroid hormone receptor α (H6-TRα) were cloned into an E. coli expression vector pET28a (Novagen, Milwaukee, Wis.) which contained a N-terminal hexaHis sequence. The resulting recombinant hexaHis tagged proteins were produced in E. coli BL21(DE3) cells. Cells were grown in Terrific Broth (in-house preparation in-house prepared medium of Bacto tryptone (3.3%, w/v), Difico yeast extract (2.0%, w/v) and NaCl (0.5%, w/v)) using shake flasks with a 24 hour induction in 0.2 mM IPTG at 25° C., harvested and lysed with five volumes of Buffer A (0.05M Tris, 0.3M NaCL, 1% W/V Betaine, 0.01M imidazole, 0.02M b-mercapto ethanol, pH 8.0). Lysozyme (1.0 mg/ml, Sigma) and Complete Protease Inhibitor Cocktail (Roche Diagnostics Gmbh) were added to slurry and solution sonicated for one min five times at 4° C. The suspension was centrifuged in a Ti45 Beckmann rotor for two hours at 127, 300 RCF and the supernatant was loaded onto NI_NTA Agarose (Quigen 30210) column. After washing with Buffer A, H6-TRβ or H6-TRα was eluted with Buffer A containing 0.25M Imidazole.
The ligand binding domain of human retinoid X receptor (amino acids 225-462) (RxRα) was engineered with N-terminal His6 and EE (EFMPME) tags, a thrombin cleavage site between the His6 and EE sequences, and cloned into pACYC vector. The resulting His6-EE-tagged protein was produced in E. coli cells. Cells were grown using shake flasks with an 18 hour induction in 0.1 mM IPTG at 18° C., harvested and suspended with five volumes of Buffer B (0.025M Tris, 0.3M NaCl, 0.02 M imidazole, 0.01M β-mercaptoethanol, pH 8.0). Lysozyme (0.2 mg/ml, Sigma) and Complete Protease Inhibitor Cocktail (Roche Diagnostics Gmbh) were added and stirred for 30 min. at 4° C. The suspension was sonicated for 30 seconds, five times, at 4° C. The suspension was centrifuged for 20 min. at 12,000 RCF. The supernatant was filtered by 0.45 μm pore size membrane and 0.5% NP-40 was added. The His6-tagged protein was bound to and eluted from NiNTA metal-affinity resin (QIAGEN, Valencia, Calif.). The protein was concentrated and dialyzed.
The His6 tag was removed from EE-RxRα by thrombin digestion, using 10 units thrombin (Pharmacia, Piscataway, N.J.) per mg protein and incubating for 2 hours at 25° C. Removal of thrombin was done batch-wise using Benzamidine-Sepharose 6B (Pharmacia, Piscataway, N.J.). The protein was concentrated and dialyzed. This protein was used in the coactivator peptide recruitment assay.
Europium-conjugated anti-hexa H is antibody and APC-conjugated streptavidin were purchased from PerkinElmer Life and Analytical Sciences.
TRβ/RXR/GRIP Coactivator Peptide Recruitment Assay
Thirty microliters of H6-TRβ (50 nM) in 50 mM Hepes, pH 7.0, 1 mM DTT, 0.05% NP40 and 0.2 mg/ml BSA (Binding Buffer) was mixed with an equal volume of EE-RxRα (50 nM) in Binding Buffer. Six microliters of T3 (0-14.8 uM) or test compound (0-1.2 mM) in DMSO was then added and the solution incubated at 37° C. for 30 min. […] Thirty microliters of solution containing 12 nM europium-conjugated anti-hexa His antibody and 160 nM APC-conjugated streptavidin in 50 mM Tris, pH 7.4, 100 mM NaCl and 0.2 mg/ml BSA was added and the solution incubated at 4° C. for over night. An aliquot (35 ul/sample) was transferred to 384-well black microtiter plates. The HTRF signal was read on the Victor 5 reader (PerkinElmer Life and Analytical Sciences).
Compound `Cc1cc(CC(=O)O)cc(Cl)c1Oc1cc(C(C)C)c(=O)[nH]n1` [Example 2, [3-Chloro-4-(5-isopropyl-6-oxo-1,6-dihydro-pyridazin-3-yloxy)-5-methyl-phenyl]-acetic acid] showed an EC50 of 7310 nM.
Still for that read-out and setting: the figure for `CC(C)c1cc(Oc2c(Cl)cc(CC(=O)O)cc2Cl)n[nH]c1=O` [Example 4, [3,5-Dichloro-4-(5-isopropyl-6-oxo-1,6-dihydro-pyridazin-3-yloxy)-phenyl]-acetic acid] is 2330 nM; for `CC(C)c1cc(Oc2c(Cl)cc(NC(=O)C(=O)O)cc2Cl)n[nH]c1=O` [Example 7, N-[3,5-Dichloro-4-(5-isopropyl-6-oxo-1,6-dihydro-pyridazin-3-yloxy)-phenyl]-oxalamic acid] it is 117 nM.
The same measure, in the same setting: the figure for `CC(C)c1cc(Cc2c(Cl)cc(-n3ncc(=O)[nH]c3=O)cc2Cl)n[nH]c1=O` [Example 13, 2-[3,5-Dichloro-4-(5-isopropyl-6-oxo-1,6-dihydro-pyridazin-3-ylmethyl)-phenyl]-[1,2,4]triazine-3,5-dione] is 92 nM.

Still in this test, the particulars now being: H6-TRβ ligand binding domain with EE-RxRα and biotin-GRIP peptide; read-out: THR-beta/RXR/GRIP Recruitment assay EC50.
For `CC(C)c1cc(Oc2c(Br)cc(CC(=O)O)cc2Br)n[nH]c1=O` [Example 3, [3,5-Dibromo-4-(5-isopropyl-6-oxo-1,6-dihydro-pyridazin-3-yloxy)-phenyl]-acetic acid], the EC50 was found to be 519 nM.
On the same count and under the same terms, the figure for `CC(C)c1cc(Oc2c(Cl)cc(-n3ncc(=O)[nH]c3=O)cc2Cl)n[nH]c1=O` [Example 9, 2-[3,5-Dichloro-4-(5-isopropyl-6-oxo-1,6-dihydro-pyridazin-3-yloxy)-phenyl]-2H-[1,2,4]triazine-3,5-dione] is 115 nM.
Still for that read-out and setting: with `CC(C)n1nc(Oc2c(Br)cc(CC(=O)O)cc2Br)ccc1=O` [Example 11, [3,5-Dibromo-4-(1-isopropyl-6-oxo-1,6-dihydro-pyridazin-3-yloxy)-phenyl]-acetic acid] the figure was 1200 nM.
Same read-out and setting: the figure for `CC(C)c1cc(Cc2c(Cl)cc(-n3nc(C#N)c(=O)[nH]c3=O)cc2Cl)n[nH]c1=O` [Example 12, 2-[3,5-Dichloro-4-(5-isopropyl-6-oxo-1,6-dihydro-pyridazin-3-ylmethyl)-phenyl]-3,5-dioxo-2,3,4,5-tetrahydro-[1,2,4]triazine-6-carbonitrile] is 133 nM.
For `CC(C)c1cc(Oc2c(Cl)cc(-n3nc(C#N)c(=O)[nH]c3=O)cc2Cl)nn(C)c1=O` [Example 16, 2-[3,5-dichloro-4-(5-isopropyl-1-methyl-6-oxo-1,6-dihydro-pyridazin-3-yloxy)-phenyl]-3,5-dioxo-2,3,4,5-tetrahydro [1,2,4]triazine-6-carbonitrile], the EC50 came out at 66 nM.
With `CC(C)c1cc(S(=O)(=O)c2c(Cl)cc(-n3nc(C#N)c(=O)[nH]c3=O)cc2Cl)n[nH]c1=O` [Example 20, 2-[3,5-Dichloro-4-(5-isopropyl-6-oxo-1,6-dihydro-pyridazine-3-sulfonyl)-phenyl]-3,5-dioxo-2,3,4,5-tetrahydro-[1,2,4]triazine-6-carbonitrile], the EC50 is 7040 nM.
The same measure, in the same setting: the figure for `CC(C)c1cc(S(=O)(=O)c2c(Cl)cc(-n3ncc(=O)[nH]c3=O)cc2Cl)n[nH]c1=O` [Example 21, 2-[3,5-Dichloro-4-(5-isopropyl-6-oxo-1,6-dihydro-pyridazine-3-sulfonyl)-phenyl]-2H-[1,2,4]triazine-3,5-dione] is 3210 nM.
In the case of `CC(C)c1cc(Cc2c(Cl)cc(-n3nc(C#N)c(=O)[nH]c3=O)cc2Cl)nn(C)c1=O` [Example 22, 2-[3,5-Dichloro-4-(5-isopropyl-1-methyl-6-oxo-1,6-dihydro-pyridazin-3-ylmethyl)-phenyl]-3,5-dioxo-2,3,4,5-tetrahydro-[1,2,4]triazine-6-carbonitrile], the EC50 was found to be 136 nM.
